Laboratory results: PubChem BioAssay (NCI)
“And” between values parts separate entries of the source, which are not always exact repeats. Equal entries are not always repeated.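 Following 48 hours of exposure in 96-well plates, responses at five concentrations were used to interpolate endpoints linearly. The concentration for 50% growth inhibition is given as GI50. TGI marks complete inhibition of growth.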

Experiments:
Assay in all cases: inhibition of tumour cell growth, NCI panel, 48 h
BT-549 breast = test system: BT-549 breast
NCI/ADR-RES ovarian = test system: NCI/ADR-RES ovarian
MOLT-4 leukemia = test system: MOLT-4 leukemia
PC-3 prostate = test system: PC-3 prostate
HOP-92 NSCLC = test system: HOP-92 NSCLC
NCI-H23 lung = test system: NCI-H23 lung
OVCAR-4 ovarian = test system: OVCAR-4 ovarian
UACC-62 melanoma = test system: UACC-62 melanoma
UO-31 renal = test system: UO-31 renal
NCI-H226 lung = test system: NCI-H226 lung

Row | Compound | GI50 (BT-549 breast) [µM] | TGI (BT-549 breast) [µM] | GI50 (NCI/ADR-RES ovarian) [µM] | TGI (NCI/ADR-RES ovarian) [µM] | TGI (MOLT-4 leukemia) | GI50 (PC-3 prostate) [µM] | TGI (PC-3 prostate) [µM] | GI50 (HOP-92 NSCLC) [µM] | TGI (NCI-H23 lung) | GI50 (OVCAR-4 ovarian) | GI50 (UACC-62 melanoma) [µM] | TGI (UO-31 renal) [µM] | TGI (NCI-H226 lung) [µM] | TGI (HOP-92 NSCLC) [µM] | TGI (UACC-62 melanoma) [µM] | GI50 (UO-31 renal) [µM] | GI50 (MOLT-4 leukemia) [µM] | GI50 (NCI-H226 lung) [µM] | GI50 (NCI-H23 lung) [µM] | TGI (OVCAR-4 ovarian) [µM]
1 | CC[C@@H](C)[C@H]([C@H](CC(=O)N1CCC[C@@H]1[C@@H](OC)[C@H](C)C(=O)N[C@H](Cc1ccccc1)c1nccs1)OC)N(C)C(=O)[C@H](NC(=O)[C@@H](C(C)C)N(C)C)C(C)C | 8.48e-05 | > 100 | 0.000317 | < 0.215 | > 28.4 µM | 7.77e-06 | > 65.8 | 0.000425 | 0.00554 µM and < 0.215 µM | 1.2 µM and 0.588 µM | 0.000425 | – | – | – | – | – | – | – | – | –
2 | COc1cc(OC)c(OC)cc1/C=C1\C=Cc2ccccc21 | – | – | – | > 100 | 44.4 µM | – | > 100 | – | > 100 µM | – | – | 64.2 | > 100 | – | – | – | – | – | – | –
3 | c1ccc2cc(OCC3CO3)c(OCC3CO3)cc2c1 (stereo not drawn) | – | 5.57 | – | 27.3 | 16.5 µM | – | 32.1 | – | 12.8 µM | – | – | 21.8 | – | 23.5 | 17.6 | – | – | – | – | –
4 | COc1ccc(OC)c(-c2cc(-c3ccccc3)nn2-c2ccc(S(N)(=O)=O)cc2)c1 | 17.7 | 38.9 | 16.2 | 31.8 | > 100 µM | 12.2 | 28 | 15.5 | 30.2 µM | – | 12.1 | 50.4 | 33.6 | 50.1 | 24.7 | 17.8 | 6.44 | 15 | 15.8 | –
5 | CCOC(=O)c1cc2cc(NC(=O)c3cc4cc([N+](=O)[O-])ccc4n3C)ccc2n1C | 11.6 | 35.3 | 16.8 | 45.3 | > 100 µM | 22.6 | 52.9 | 34.9 | 37 µM | – | 12.3 | > 100 | 46.6 | 85 | 27.1 | > 100 | 30.9 | 12 | 12.3 | –
6 | CC1CCCN(CC(O)CN2CCCc3ccccc32)C1 (stereo not drawn) | – | > 100 | – | > 100 | > 100 µM | – | > 100 | – | > 100 µM | – | – | > 100 | > 100 | – | > 100 | – | – | – | – | > 100
7 | COc1ccc2[nH]c(-c3cccc(N(C)C)c3)cc(=O)c2c1 | – | – | 0.487 | – | 2.71 µM and 1.56 µM | 0.435 | > 100 | 3.25 | – | – | 0.483 | > 100 | – | – | > 100 | 0.633 | – | 0.581 | 0.664 | > 100
8 | COc1cc2nc(-c3ccc(-n4cncc4-c4ccc(N)cc4)cc3)sc2c(OC)c1OC | – | – | 1.61 | 6.43 | – | 3.02 | 49.2 | 0.446 | 23.7 µM | 3.6 µM | 5.45 | 6.87 | 40.6 | 4.08 | > 100 | 1.55 | – | 4.73 | 3.87 | 32.1
